Experiment [1] addresses Alpha-2A adrenergic receptor (Homo sapiens) (UniProt P08913). Put plainly: Inhibition of alpha2A adrenergic receptor at 10 uM.
Experiment [2] deals with Delta-type opioid receptor (Homo sapiens, UniProt P41143). Description: Inhibition of delta opioid receptor.
The target of experiment [3] is 5-hydroxytryptamine receptor 2B (Homo sapiens, UniProt P41595). Description: Inhibition of 5-HT2B receptor.
Experiment [4] addresses T1, Kappa-type opioid receptor (Homo sapiens, UniProt P41145). Put plainly: Inhibition of kappa opioid receptor.
Experiment [5] has as its target 5-hydroxytryptamine receptor 3A (Homo sapiens) (UniProt P46098). Description: Inhibition of 5-HT3 receptor at 10 uM.
Experiment [6] concerns the target T1, Kappa-type opioid receptor. Description: Inhibition of kappa opioid receptor at 10 uM.
Experiment [7] concerns the target Alpha-1B adrenergic receptor (Homo sapiens, UniProt P35368). Description: Inhibition of Alpha-1B adrenergic receptor.

These results are taken from ChEMBL document CHEMBL1255512, “Pyrazolo[1,5-a]pyrimidine acetamides: 4-Phenyl alkyl ether derivatives as potent ligands for the 18 kDa translocator protein (TSPO)” (Bioorg Med Chem Lett, 2010).

Each structure is given as a SMILES string.

T1 sequence (P41145 whole entry): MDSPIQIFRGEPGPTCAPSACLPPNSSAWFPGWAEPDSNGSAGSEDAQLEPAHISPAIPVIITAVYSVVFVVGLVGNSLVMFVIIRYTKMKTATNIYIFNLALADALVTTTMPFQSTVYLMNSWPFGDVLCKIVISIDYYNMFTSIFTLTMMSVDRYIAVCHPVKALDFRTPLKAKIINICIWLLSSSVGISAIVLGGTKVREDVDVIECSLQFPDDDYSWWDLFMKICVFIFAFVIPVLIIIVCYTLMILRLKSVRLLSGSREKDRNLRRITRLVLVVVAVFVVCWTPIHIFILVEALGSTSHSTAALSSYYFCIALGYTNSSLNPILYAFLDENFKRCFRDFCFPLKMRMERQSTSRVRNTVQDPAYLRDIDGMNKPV
Chain of Delta-type opioid receptor (P41143 whole entry): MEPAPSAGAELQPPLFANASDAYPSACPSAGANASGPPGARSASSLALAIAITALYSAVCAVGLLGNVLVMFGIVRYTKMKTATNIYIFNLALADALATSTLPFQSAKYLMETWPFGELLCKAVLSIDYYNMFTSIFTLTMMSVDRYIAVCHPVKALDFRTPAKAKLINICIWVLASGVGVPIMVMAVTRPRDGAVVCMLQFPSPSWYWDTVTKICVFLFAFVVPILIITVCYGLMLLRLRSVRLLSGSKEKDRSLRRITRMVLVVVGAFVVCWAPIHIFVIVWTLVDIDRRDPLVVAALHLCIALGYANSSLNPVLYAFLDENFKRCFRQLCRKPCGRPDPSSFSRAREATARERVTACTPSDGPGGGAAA
Chain of 5-hydroxytryptamine receptor 3A (Homo sapiens) (P46098 whole entry): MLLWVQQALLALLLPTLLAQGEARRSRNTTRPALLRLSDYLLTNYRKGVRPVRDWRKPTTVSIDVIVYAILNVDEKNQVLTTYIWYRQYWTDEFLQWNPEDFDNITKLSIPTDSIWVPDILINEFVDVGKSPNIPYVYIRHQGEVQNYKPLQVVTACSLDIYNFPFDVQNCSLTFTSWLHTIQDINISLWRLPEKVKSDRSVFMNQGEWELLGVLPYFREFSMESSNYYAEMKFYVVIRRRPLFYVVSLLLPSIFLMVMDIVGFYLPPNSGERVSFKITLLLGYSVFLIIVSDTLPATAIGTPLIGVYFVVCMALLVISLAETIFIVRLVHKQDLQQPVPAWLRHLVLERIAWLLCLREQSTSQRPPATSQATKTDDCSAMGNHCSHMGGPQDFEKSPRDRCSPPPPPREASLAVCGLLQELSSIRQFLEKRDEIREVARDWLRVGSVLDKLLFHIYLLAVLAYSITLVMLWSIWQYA
Chain of Alpha-2A adrenergic receptor (Homo sapiens) (P08913 whole entry): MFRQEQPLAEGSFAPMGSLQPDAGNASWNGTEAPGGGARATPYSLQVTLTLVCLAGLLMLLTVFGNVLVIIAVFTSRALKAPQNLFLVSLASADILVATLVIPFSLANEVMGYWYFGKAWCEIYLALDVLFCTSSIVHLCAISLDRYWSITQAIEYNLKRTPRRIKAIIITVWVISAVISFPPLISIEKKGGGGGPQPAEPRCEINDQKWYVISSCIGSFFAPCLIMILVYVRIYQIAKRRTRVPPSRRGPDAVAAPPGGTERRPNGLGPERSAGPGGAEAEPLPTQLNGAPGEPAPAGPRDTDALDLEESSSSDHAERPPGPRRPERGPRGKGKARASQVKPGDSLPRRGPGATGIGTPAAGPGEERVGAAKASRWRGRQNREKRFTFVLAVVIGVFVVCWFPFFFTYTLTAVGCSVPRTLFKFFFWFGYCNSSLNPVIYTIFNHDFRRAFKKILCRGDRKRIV
Chain of Alpha-1B adrenergic receptor (P35368 whole entry): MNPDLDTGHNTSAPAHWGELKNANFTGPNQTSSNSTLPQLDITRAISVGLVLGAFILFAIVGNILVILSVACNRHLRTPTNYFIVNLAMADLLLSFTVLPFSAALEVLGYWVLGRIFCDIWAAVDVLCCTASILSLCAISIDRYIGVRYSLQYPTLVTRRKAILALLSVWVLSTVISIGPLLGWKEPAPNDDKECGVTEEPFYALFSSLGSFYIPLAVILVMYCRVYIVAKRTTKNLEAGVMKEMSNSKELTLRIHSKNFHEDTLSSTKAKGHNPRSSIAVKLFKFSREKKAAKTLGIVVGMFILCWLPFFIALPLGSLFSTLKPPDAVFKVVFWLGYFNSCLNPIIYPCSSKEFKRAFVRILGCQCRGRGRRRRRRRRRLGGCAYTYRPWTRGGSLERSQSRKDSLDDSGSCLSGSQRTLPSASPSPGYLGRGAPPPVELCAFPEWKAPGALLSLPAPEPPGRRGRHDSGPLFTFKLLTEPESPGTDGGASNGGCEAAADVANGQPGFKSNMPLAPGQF
Chain of 5-hydroxytryptamine receptor 2B (P41595 whole entry): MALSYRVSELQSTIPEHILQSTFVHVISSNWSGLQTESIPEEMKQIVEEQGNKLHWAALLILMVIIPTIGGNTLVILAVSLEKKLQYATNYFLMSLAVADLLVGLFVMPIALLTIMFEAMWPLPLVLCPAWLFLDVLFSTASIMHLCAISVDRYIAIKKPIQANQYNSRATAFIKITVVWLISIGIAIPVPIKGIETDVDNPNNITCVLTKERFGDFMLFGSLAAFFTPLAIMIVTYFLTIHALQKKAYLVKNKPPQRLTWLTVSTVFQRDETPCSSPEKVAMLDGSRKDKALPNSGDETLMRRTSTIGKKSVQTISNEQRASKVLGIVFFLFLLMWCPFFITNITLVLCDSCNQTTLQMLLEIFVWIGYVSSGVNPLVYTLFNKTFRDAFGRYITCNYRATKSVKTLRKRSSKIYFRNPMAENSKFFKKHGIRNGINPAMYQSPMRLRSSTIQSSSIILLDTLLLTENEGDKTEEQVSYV

On to `CCCCOc1ccc(-c2nn3c(C)cc(C)nc3c2CC(=O)N(CC)CC)cc1`, for which the inhibition (as a rule, the drop in the measured response relative to a control, in per cent) in experiment [1] is less than 50%. Also, the figures for the inhibition constant Ki in experiment [2], in experiment [3] and in experiment [4] were greater than 10 µM, 8.36 µM and greater than 10 µM, respectively.

`C#CCOc1ccc(-c2nn3c(C)cc(C)nc3c2CC(=O)N(CC)CC)cc1`: the inhibition in experiment [1], in experiment [5] and in experiment [6] was less than 50% throughout.

With `CCCOc1ccc(-c2nn3c(C)cc(C)nc3c2CC(=O)N(CC)CC)cc1`, the Ki in experiment [2], in experiment [7] and in experiment [4] was greater than 10 µM each time.

Consider `CCOc1ccc(-c2nn3c(C)cc(C)nc3c2CC(=O)N(CC)CC)cc1`, for which the inhibition in experiment [5] and in experiment [6] was less than 50% each time.
